# Molecular target: recombinant human Nav1.7 (Homo sapiens (Human), UniProt Q15858)
# Test: FRET-based membrane potential assay, recombinant human sodium channel Nav1.7
# Assay type: cell-based
# Conditions: FRET-Membrane Potential Nav1.7 IC50
# In short: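 Channel activation used veratridine at its EC80, set by a dilution curve each experiment, together with Leiurus scorpion venom, added 3 min after compound. Membrane-potential ratio signals from FLIPR Tetra in HEPES-buffered HBSS were fitted to a four-parameter Hill equation for percent inhibition and IC50.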
# Chain of recombinant human Nav1.7 (Q15858 whole entry): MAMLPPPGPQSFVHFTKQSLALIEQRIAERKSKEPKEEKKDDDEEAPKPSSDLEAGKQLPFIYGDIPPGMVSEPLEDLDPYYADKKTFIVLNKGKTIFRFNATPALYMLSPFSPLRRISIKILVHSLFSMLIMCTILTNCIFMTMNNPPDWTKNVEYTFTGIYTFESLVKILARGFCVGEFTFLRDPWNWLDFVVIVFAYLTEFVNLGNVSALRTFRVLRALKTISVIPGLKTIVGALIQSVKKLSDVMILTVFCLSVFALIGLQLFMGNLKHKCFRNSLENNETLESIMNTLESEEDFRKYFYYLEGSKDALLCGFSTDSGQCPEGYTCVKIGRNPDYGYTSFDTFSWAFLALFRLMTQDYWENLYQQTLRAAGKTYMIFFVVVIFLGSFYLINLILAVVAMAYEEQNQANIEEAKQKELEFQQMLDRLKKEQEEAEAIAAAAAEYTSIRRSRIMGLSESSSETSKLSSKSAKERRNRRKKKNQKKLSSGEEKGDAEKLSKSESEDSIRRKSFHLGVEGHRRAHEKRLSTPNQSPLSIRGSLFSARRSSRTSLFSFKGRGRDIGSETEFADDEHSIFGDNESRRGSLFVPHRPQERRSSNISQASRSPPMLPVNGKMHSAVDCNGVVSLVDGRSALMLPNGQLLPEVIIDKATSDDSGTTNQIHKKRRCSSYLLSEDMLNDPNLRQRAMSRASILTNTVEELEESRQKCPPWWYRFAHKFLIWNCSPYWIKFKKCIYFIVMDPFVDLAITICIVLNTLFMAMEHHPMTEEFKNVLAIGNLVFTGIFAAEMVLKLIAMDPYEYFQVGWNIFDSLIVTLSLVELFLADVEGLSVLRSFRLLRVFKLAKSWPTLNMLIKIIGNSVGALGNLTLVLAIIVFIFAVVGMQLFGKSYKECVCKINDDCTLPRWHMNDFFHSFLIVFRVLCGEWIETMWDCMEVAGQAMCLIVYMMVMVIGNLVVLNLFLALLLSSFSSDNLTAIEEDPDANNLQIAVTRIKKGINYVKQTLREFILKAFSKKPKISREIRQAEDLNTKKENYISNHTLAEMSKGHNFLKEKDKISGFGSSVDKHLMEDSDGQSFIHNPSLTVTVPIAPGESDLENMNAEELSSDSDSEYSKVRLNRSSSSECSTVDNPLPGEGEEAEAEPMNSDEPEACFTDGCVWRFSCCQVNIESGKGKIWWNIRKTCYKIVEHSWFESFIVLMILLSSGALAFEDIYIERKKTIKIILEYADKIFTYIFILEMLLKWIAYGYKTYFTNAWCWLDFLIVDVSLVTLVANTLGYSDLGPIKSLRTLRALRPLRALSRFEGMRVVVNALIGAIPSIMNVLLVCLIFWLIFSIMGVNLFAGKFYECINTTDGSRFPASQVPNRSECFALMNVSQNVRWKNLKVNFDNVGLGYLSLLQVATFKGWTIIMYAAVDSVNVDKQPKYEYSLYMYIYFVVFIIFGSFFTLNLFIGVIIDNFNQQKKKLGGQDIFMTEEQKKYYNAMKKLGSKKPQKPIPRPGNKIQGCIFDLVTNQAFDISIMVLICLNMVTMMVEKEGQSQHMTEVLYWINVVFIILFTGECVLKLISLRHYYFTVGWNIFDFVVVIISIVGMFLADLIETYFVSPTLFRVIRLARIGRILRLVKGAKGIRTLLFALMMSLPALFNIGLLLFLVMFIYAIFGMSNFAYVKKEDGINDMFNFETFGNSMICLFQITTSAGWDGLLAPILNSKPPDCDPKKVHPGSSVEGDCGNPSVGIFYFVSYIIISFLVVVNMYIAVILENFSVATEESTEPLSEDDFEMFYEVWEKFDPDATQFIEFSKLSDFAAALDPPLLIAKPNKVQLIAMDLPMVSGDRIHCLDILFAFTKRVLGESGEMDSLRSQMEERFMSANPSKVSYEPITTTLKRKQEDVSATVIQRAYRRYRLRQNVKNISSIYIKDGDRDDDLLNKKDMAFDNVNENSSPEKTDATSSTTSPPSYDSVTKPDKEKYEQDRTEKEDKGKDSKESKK
row,SMILES,IC50
1,"O=C(c1ccc2cc(Oc3ccc(C(F)(F)F)cn3)ccc2n1)N1CCN[C@H](CO)C1 [Example 276, [(3S)-3-(hydroxymethyl)piperazin-1-yl](6-{[5-(trifluoromethyl)pyridin-2-yl]oxy}quinolin-2-yl)methanone]",3.1 µM
2,"O=C(N[C@H]1C[C@H](O)C1)c1ccc2cc(Oc3ccc(C(F)(F)F)cn3)ccc2n1 [Example 302, N-(trans-3-hydroxycyclobutyl)-6-{[5-(trifluoromethyl)pyridin-2-yl]oxy}quinoline-2-carboxamide]",3.49 µM

# Same assay, conditions: HEK293 cells stably expressing recombinant human Nav1.7; veratridine + scorpion venom depolarization; read-out: FRET-Membrane Potential Nav1.7 IC50
row,SMILES,IC50
1,"O=C(c1ccc2cc(Oc3ccc(C(F)(F)F)cn3)ccc2n1)N1CCN(c2ccc(Cl)cn2)CC1 [Example 272, [4-(5-chloropyridin-2-yl)piperazin-1-yl](6-{[5-(trifluoromethyl)pyridin-2-yl]oxy}quinolin-2-yl)methanone]",2.99 µM
2,"CC[C@H]1CN(C(=O)c2ccc3cc(Oc4ccc(C(F)(F)F)cn4)ccc3n2)CCN1 [Example 273, [(3S)-3-ethylpiperazin-1-yl](6-{[5-(trifluoromethyl)pyridin-2-yl]oxy}quinolin-2-yl)methanone]",0.488 µM
3,"CC(C)[C@H]1CN(C(=O)c2ccc3cc(Oc4ccc(C(F)(F)F)cn4)ccc3n2)CCN1 [Example 274, [(3S)-3-isopropylpiperazin-1-yl](6-{[5-(trifluoromethyl)pyridin-2-yl]oxy}quinolin-2-yl)methanone]",0.304 µM
4,"CC(O)c1ccc(Oc2ccc3nc(C(=O)N4CCNCC4)ccc3c2)cc1 (centres unmarked) [Example 275, {6-[4-(1-hydroxyethyl)phenoxy]quinolin-2-yl}(piperazin-1-yl)methanone]",11.4 µM
5,"CC(C)OC(=O)N1CCN(C(=O)c2ccc3cc(Oc4ccc(C(F)(F)F)cn4)ccc3n2)CC1 [Example 277, isopropyl 4-[(6-{[5-(trifluoromethyl)pyridin-2-yl]oxy}quinolin-2-yl)carbonyl]piperazine-1-carboxylate]",3.09 µM
6,"O=C(c1ccc2cc(Oc3ccc(C(F)(F)F)cn3)ccc2n1)N1CCC12CNC2 [Example 279, 1,6-diazaspiro[3.3]hept-1-yl(6-{[5-(trifluoromethyl)pyridin-2-yl]oxy}quinolin-2-yl)methanone]",5.68 µM
7,"O=C(c1ccc2cc(Oc3ccc(C(F)(F)F)cn3)ccc2n1)N1C[C@@H]2CCN[C@@H]2C1 [Example 280, (3 aS,6aS)-hexahydropyrrolo[3,4-b]pyrrol-5(1H)-yl(6-{[5-(trifluoromethyl)pyridin-2-yl]oxy}quinolin-2-yl)methanone]",0.605 µM
8,"O=C(NN1CCOCC1)c1ccc2cc(Oc3ccc(C(F)(F)F)cn3)ccc2n1 [Example 281, N-(morpholin-4-yl)-6-{[5-(trifluoromethyl)pyridin-2-yl]oxy}quinoline-2-carboxamide]",1.28 µM
9,"O=C(c1ccc2cc(Oc3ccc(C(F)(F)F)cn3)ccc2n1)N1CC[C@@H](O)C1 [Example 282, [(3R)-3-hydroxypyrrolidin-1-yl](6-{[5-(trifluoromethyl)pyridin-2-yl]oxy}quinolin-2-yl)methanone]",8.52 µM
10,"O=C(c1ccc2cc(Oc3ccc(C(F)(F)F)cn3)ccc2n1)N1CC[C@H](O)C1 [Example 283, [(3S)-3-hydroxypyrrolidin-1-yl](6-{[5-(trifluoromethyl)pyridin-2-yl]oxy}quinolin-2-yl)methanone]",10.9 µM
11,"O=C(c1ccc2cc(Oc3ccc(C(F)(F)F)cn3)ccc2n1)N1CCCC(O)CC1 (centres unmarked) [Example 284, (4-hydroxyazepan-1-yl)(6-{[5-(trifluoromethyl)pyridin-2-yl]oxy}quinolin-2-yl)methanone]",8.59 µM
12,"CC1(CN2CCN(C(=O)c3ccc4cc(Oc5ccc(C(F)(F)F)cn5)ccc4n3)CC2)COC1 [Example 286, {4-[(3-methyloxetan-3-yl)methyl]piperazin-1-yl}(6-{[5-(trifluoromethyl)pyridin-2-yl]oxy}quinolin-2-yl)methanone]",11.4 µM
13,"CS(=O)(=O)C1CCN(C(=O)c2ccc3cc(Oc4ccc(C(F)(F)F)cn4)ccc3n2)C1 (centres unmarked) [Example 287, [3-(methylsulfonyl)pyrrolidin-1-yl](6-{[5-(trifluoromethyl)pyridin-2-yl]oxy}quinolin-2-yl)methanone]",2.81 µM
14,"O=C(c1ccc2cc(Oc3ccc(C(F)(F)F)cn3)ccc2n1)N1CCN2C(=O)CCC2C1 (centres unmarked) [Example 288, 2-[(6-{[5-(trifluoromethyl)pyridin-2-yl]oxy}quinolin-2-yl)carbonyl]hexahydropyrrolo[1,2-a]pyrazin-6(2H)-one]",7.88 µM
15,"CCOC(=O)N1CCN(C(=O)c2ccc3cc(Oc4ccc(C(F)(F)F)cn4)ccc3n2)CC1 [Example 289, ethyl 4-[(6-{[5-(trifluoromethyl)pyridin-2-yl]oxy}quinolin-2-yl)carbonyl]piperazine-1-carboxylate]",3.91 µM
16,"O=C(c1ccc2cc(Oc3ccc(C(F)(F)F)cn3)ccc2n1)N1CCN(C(=O)C2CC2)CC1 [Example 290, cyclopropyl{4-[(6-{[5-(trifluoromethyl)pyridin-2-yl]oxy}quinolin-2-yl)carbonyl]piperazin-1-yl}methanone]",9.86 µM
17,"O=C(c1ccc2cc(Oc3ccc(C(F)(F)F)cn3)ccc2n1)N1CCN(C2CCCCC2)CC1 [Example 291, (4-cyclohexylpiperazin-1-yl)(6-{[5-(trifluoromethyl)pyridin-2-yl]oxy}quinolin-2-yl)methanone]",13.7 µM
18,"O=C(c1ccc2cc(Oc3ccc(C(F)(F)F)cn3)ccc2n1)N1CC(O)C(F)C1 (centres unmarked) [Example 292, (3-fluoro-4-hydroxypyrrolidin-1-yl)(6-{[5-(trifluoromethyl)pyridin-2-yl]oxy}quinolin-2-yl)methanone]",3.26 µM
19,"CC(C)COC(=O)N1CCN(C(=O)c2ccc3cc(Oc4ccc(C(F)(F)F)cn4)ccc3n2)CC1 [Example 293, isobutyl 4-[(6-{[5-(trifluoromethyl)pyridin-2-yl]oxy}quinolin-2-yl)carbonyl]piperazine-1-carboxylate]",3.32 µM
20,"CCN1CCN(C(=O)c2ccc3cc(Oc4ccc(C(F)(F)F)cn4)ccc3n2)CC1 [Example 294, (4-ethylpiperazin-1-yl)(6-{[5-(trifluoromethyl)pyridin-2-yl]oxy}quinolin-2-yl)methanone]",1.4 µM
21,"O=C(c1ccc2cc(Oc3ccc(C(F)(F)F)cn3)ccc2n1)N1CCCCC1 [Example 297, piperidin-1-yl(6-{[5-(trifluoromethyl)pyridin-2-yl]oxy}quinolin-2-yl)methanone]",7.99 µM
22,"O=C(c1ccc2cc(Oc3ccc(C(F)(F)F)cn3)ccc2n1)N1CCN(CC(F)F)CC1 [Example 298, [4-(2,2-difluoroethyl)piperazin-1-yl](6-{[5-(trifluoromethyl)pyridin-2-yl]oxy}quinolin-2-yl)methanone]",12.3 µM
23,"O=C(c1ccc2cc(Oc3ccc(C(F)(F)F)cn3)ccc2n1)N1CCN(C(=O)N2CCOCC2)CC1 [Example 299, morpholin-4-yl{4-[(6-{[5-(trifluoromethyl)pyridin-2-yl]oxy}quinolin-2-yl)carbonyl]piperazin-1-yl}methanone]",> 20 µM
24,"O=C(c1ccc2cc(Oc3ccc(C(F)(F)F)cn3)ccc2n1)N1C[C@H](O)C[C@H]1CO [Example 300, [(2S,4R)-4-hydroxy-2-(hydroxymethyl)pyrrolidin-1-yl](6-{[5-(trifluoromethyl)pyridin-2-yl]oxy}quinolin-2-yl)methanone]",> 20 µM
25,"O=C(c1ccc2cc(Oc3ccc(C(F)(F)F)cn3)ccc2n1)N1CC[C@H](O)[C@H]1CO [Example 304, [(2R,3S)-3-hydroxy-2-(hydroxymethyl)pyrrolidin-1-yl](6-{[5-(trifluoromethyl)pyridin-2-yl]oxy}quinolin-2-yl)methanone]",> 20 µM
26,"O=C(c1ccc2cc(Oc3ccc(C(F)(F)F)cn3)ccc2n1)N1C[C@H](CO)C[C@H](CO)C1 [Example 307, [cis-3,5-bis(hydroxymethyl)piperidin-1-yl](6-{[5-(trifluoromethyl)pyridin-2-yl]oxy}quinolin-2-yl)methanone]",14.6 µM
27,"O=C(c1ccc2cc(Oc3ccc(C(F)(F)F)cn3)ccc2n1)N1CCN(Cc2ccccn2)CC1 [Example 308, [4-(pyridin-2-ylmethyl)piperazin-1-yl](6-{[5-(trifluoromethyl)pyridin-2-yl]oxy}quinolin-2-yl)methanone]",3.07 µM
28,"CC(C)(C)CC(=O)N1CCN(C(=O)c2ccc3cc(Oc4ccc(C(F)(F)F)cn4)ccc3n2)CC1 [Example 309, 3,3-dimethyl-1-{4-[(6-{[5-(trifluoromethyl)pyridin-2-yl]oxy}quinolin-2-yl)carbonyl]piperazin-1-yl}butan-1-one]",3.57 µM

# Same assay, conditions: read-out: FRET-Membrane Potential Nav1.7 IC50
row,SMILES,IC50
1,"O=C(c1ccc2cc(Oc3ccc(C(F)(F)F)cn3)ccc2n1)N1CCN(c2cccnn2)CC1 [Example 271, [4-(pyridazin-3-yl)piperazin-1-yl](6-{[5-(trifluoromethyl)pyridin-2-yl]oxy}quinolin-2-yl)methanone]",11.2 µM
2,"O=C(c1ccc2cc(Oc3ccc(C(F)(F)F)cn3)ccc2n1)N1C[C@@H]2CN[C@@H]2C1 [Example 278, (1S,5S)-3,6-diazabicyclo[3.2.0]hept-3-yl(6-{[5-(trifluoromethyl)pyridin-2-yl]oxy}quinolin-2-yl)methanone]",3.72 µM
3,"O=C(NC1CS(=O)(=O)CC1O)c1ccc2cc(Oc3ccc(C(F)(F)F)cn3)ccc2n1 (centres unmarked) [Example 285, N-(4-hydroxy-1,1-dioxidotetrahydrothiophen-3-yl)-6-{[5-(trifluoromethyl)pyridin-2-yl]oxy}quinoline-2-carboxamide]",0.774 µM
4,"O=C(c1ccc2cc(Oc3ncc(C(F)(F)F)cc3Br)ccc2n1)N1CCNCC1 [Example 295, (6-{[3-bromo-5-(trifluoromethyl)pyridin-2-yl]oxy}quinolin-2-yl)(piperazin-1-yl)methanone]",3.2 µM
5,"O=C(c1ccc2cc(Oc3ccc(C(F)(F)F)cn3)ccc2n1)N1CCOCC1 [Example 296, morpholin-4-yl(6-{[5-(trifluoromethyl)pyridin-2-yl]oxy}quinolin-2-yl)methanone]",12.4 µM
